Test: molar heat capacity at constant pressure
Settings: 101.33 kPa, Crystal, Vacuum adiabatic calorimetry

Cc1cc2nc3c(=O)[nH]c(=O)nc-3n(C[C@H](O)[C@H](O)[C@H](O)CO)c2cc1C [riboflavin]
Settings	molar heat capacity at constant pressure [J/K/mol]
1 K	0.0523
2 K	0.209
3 K	0.47
4 K	0.836
5 K	1.31
6 K	1.88
6.75 K	2.55
7 K	2.65
7.32 K	2.83
8 K	3.25
8.41 K	3.45
8.94 K	4.08
9 K	4.08
9.34 K	4.48
9.68 K	4.81
10 K	5.1
10.15 K	5.25
10.36 K	5.42
10.98 K	6.23
11.56 K	7.05
11.98 K	7.68
13.16 K	9.25
15 K	12
15.03 K	12.22
16.92 K	15.24
18.77 K	18.25
20 K	20.35
20.65 K	21.38
22.79 K	25.35
24.95 K	29.29
25 K	29.5
27.13 K	33.81
29.37 K	38.36
30 K	39.49
31.61 K	42.49
33.91 K	47.31
35 K	49.35
36.25 K	51.78
38.52 K	56.45
40 K	59.26
40.96 K	60.98
43.38 K	65.91
45 K	68.91
45.72 K	70.28
48.12 K	74.84
50 K	78.34
50.55 K	79.52
52.99 K	83.98
55.45 K	88.71
57.93 K	93.42
60 K	97.31
60.48 K	98.18
62.91 K	102.6
65.4 K	106.9
67.89 K	110.9
70 K	114.4
70.37 K	115.1
72.85 K	119.2
75.32 K	123.3
77.79 K	128.2
80 K	132
80.34 K	132.4
82.75 K	137.1
83.48 K	138.3
85.22 K	141.4
86.72 K	144.2
88.86 K	147.9
89.48 K	148.9
90 K	149.6
92.71 K	153.8
95.7 K	158.4
98.7 K	162.9
100 K	165.2
101.67 K	167.8
104.65 K	172.4
107.64 K	177.1
110 K	180.4
110.63 K	181.6
113.62 K	185.8
116.63 K	190.1
119.63 K	194.3
120 K	195
122.64 K	198.5
125.66 K	202.7
128.69 K	207.3
130 K	209.2
131.7 K	211.6
134.72 K	215.9
137.75 K	220.3
140 K	223.3
140.77 K	224.6
143.8 K	229
146.83 K	233
149.86 K	237.2
150 K	237.5
152.9 K	241.7
155.94 K	246
158.98 K	250.1
160 K	251.7
162.02 K	254.2
165.06 K	258.6
168.1 K	263
170 K	265.7
171.14 K	267.3
174.19 K	271.6
177.26 K	276
180 K	279.4
180.3 K	279.9
183.34 K	283.9
186.38 K	288.1
189.42 K	291.9
190 K	293
192.46 K	296.2
195.5 K	300.5
198.54 K	305
200 K	306.7
201.58 K	308.7
204.61 K	313
207.64 K	317.5
210 K	320.5
210.68 K	321.4
213.72 K	325.8
216.77 K	330
219.81 K	334
220 K	334.7
222.86 K	338.3
225.93 K	342.3
228.98 K	346.6
230 K	348.2
232.02 K	350.4
235.06 K	355
238.11 K	359.4
240 K	361.5
241.15 K	363.5
244.2 K	367.7
247.25 K	371.5
250 K	375.1
250.29 K	375.6
253.34 K	379.8
256.38 K	383.9
259.42 K	388.4
260 K	389.1
262.46 K	392.5
265.5 K	396.6
268.54 K	400.6
270 K	403
271.58 K	404.8
273.15 K	407.4
274.65 K	409.2
277.69 K	413.5
280 K	416.6
280.72 K	417.4
283.75 K	421.5
286.78 K	425.5
289.8 K	429.8
290 K	429.9
292.82 K	434
295.84 K	438.2
298.15 K	441.1
298.86 K	442.2
302.37 K	447.3
306.36 K	453.1
310 K	458.6
310.36 K	459.1
314.34 K	464.5
318.32 K	470
320 K	472.1
322 K	474.1
322.29 K	474.7

Source: the NIST ThermoML archive (doi:10.1016/j.tca.2013.09.032)
